SMILES strings stand for the structures. Structures can show the parent of a compound that is named as a salt.

The values that follow come from patent US8470810B2, “Heterocyclic compounds suitable for treating disorders that respond to modulation of the dopamine D3 receptor” (Abbott GmbH & Co. KG, priority 2004, dated 2013).

The target in assay [1] is T1, human dopamine D2L receptors (long isoform) (Homo sapiens, UniProt P14416).
T1 construct: expressed in transfected cells
The assay can be described thus: Dopamine D2L receptor binding, displacement of [125I] iodospiperone. To be noted: membranes of HEK-293 cells stably expressing human D2L; 0.01 nM [125I] iodospiperone; 25° C., 60 minutes; read-out: Ki(D2)*. As for the experimental part:
(§1) The substance to be tested was either dissolved in methanol/Chremophor® (BASFAG) or in dimethyl sulfoxide and then diluted with water to the desired concentration.
(§2) Each assay mixture was run in triplicate.
The incubation buffer contained 50 mM tris, 120 mM NaCl, 5 mM KCl, 2 mM CaCl2, 2 mM MgCl2 and 0.1% bovine serum albumin. The buffer was adjusted to pH 7.4 with HCl.
(§3) After having been incubated at 25° C. for 60 minutes, the assay mixtures were filtered through a Whatman GF/B glass fiber filter under vacuum using a cell collecting device. The filters were transferred to scintillation viols using a filter transfer system. After 4 ml of Ultima Gold® (Packard) have been added, the samples were shaken for one hour and the radioactivity was then counted in a Beta-Counter (Packard, Tricarb 2000 or 2200CA). The cpm values were converted into dpm using a standard quench series and the program belonging to the instrument.
(§4) The inhibition curves were analyzed by means of iterative nonlinear regression analysis using the Statistical Analysis System (SAS) which is similar to the “LIGAND” program described by Munson and Rodbard.
(§5) The results of the receptro binding studies are expressed as receptor binding constants Ki(D2) and Ki(D3), respectively, as herein before described, and given in table 6.

Assay [2] concerns the target T2, human dopamine D3 receptors (Homo sapiens, UniProt P35462).
T2 construct: expressed in transfected cells
Nature of the assay: Dopamine D3 receptor binding, displacement of [125I]-iodosulpride. The conditions noted are these: for Ki: membranes of HEK-293 cells stably expressing human D3, 0.1 nM [125I]-iodosulpride, 25° C., 60 minutes; for Ki(D2)*/Ki(D3)*: selectivity ratio of the receptor binding constants D2 over D3. The method, then: as §1, §2
The incubation buffer contained 50 mM tris, 120 mM NaCl, 5 mM KCl, 2 mM CaCl2, 2 mM MgCl2 and 0.1% bovine serum albumin, 10 μM quinolone and 0.1% ascorbic acid (prepared fresh daily). The buffer was adjusted to pH 7.4 with HCl.
as §3, §4, §5
A general note: In a radioligand displacement assay an active substance lowers the binding of a labelled ligand.

T1 sequence (P14416 whole entry, canonical isoform): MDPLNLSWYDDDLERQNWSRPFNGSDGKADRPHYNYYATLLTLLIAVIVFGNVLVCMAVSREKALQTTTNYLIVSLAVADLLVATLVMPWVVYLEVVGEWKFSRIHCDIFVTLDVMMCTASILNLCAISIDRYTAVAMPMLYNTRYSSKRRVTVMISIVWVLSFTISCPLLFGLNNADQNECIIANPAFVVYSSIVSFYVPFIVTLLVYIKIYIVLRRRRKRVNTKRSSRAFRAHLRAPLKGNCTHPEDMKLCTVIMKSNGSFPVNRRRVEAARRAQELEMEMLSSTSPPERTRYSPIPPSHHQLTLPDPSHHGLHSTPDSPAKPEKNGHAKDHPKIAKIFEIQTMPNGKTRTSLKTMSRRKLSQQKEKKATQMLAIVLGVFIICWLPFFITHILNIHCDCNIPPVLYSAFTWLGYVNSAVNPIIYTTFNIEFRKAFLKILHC
T2 sequence (P35462 whole entry): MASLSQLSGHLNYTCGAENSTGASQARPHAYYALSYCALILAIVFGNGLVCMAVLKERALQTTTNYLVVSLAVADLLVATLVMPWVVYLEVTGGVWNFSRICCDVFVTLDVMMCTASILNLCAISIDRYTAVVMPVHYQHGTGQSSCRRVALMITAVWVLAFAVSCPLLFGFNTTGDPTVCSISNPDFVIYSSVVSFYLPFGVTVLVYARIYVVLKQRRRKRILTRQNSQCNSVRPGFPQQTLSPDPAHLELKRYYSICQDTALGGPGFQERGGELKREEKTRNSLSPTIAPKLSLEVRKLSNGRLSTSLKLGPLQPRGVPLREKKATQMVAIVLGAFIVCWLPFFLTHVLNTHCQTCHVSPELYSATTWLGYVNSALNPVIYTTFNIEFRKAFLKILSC

Turning to `CCCN1CC[C@@H](c2ccc(NS(=O)(=O)c3ccc(OC(C)C)cc3)cc2)C1.Cl` [Example 23, 4-Isopropoxy-N-[4-((S)-1-propyl-pyrrolidin-3-yl)-phenyl]-benzenesulfonamide hydrochloride], the Ki in assay [1] stood at 46.6 nM. In assay [2], the Ki was 1.07 nM and the “Ki(D2)*/Ki(D3)*” value amounted to 44.
Consider `CCCN1CC[C@@H](c2ccc(NS(=O)(=O)c3ccc4c(c3)CCC4)cc2)C1.Cl` [Example 24, Indan-5-sulfonic acid [4-((S)-1-propyl-pyrrolidin-3-yl)-phenyl]-amide hydrochloride], for which the Ki in assay [1] was 72 nM. In assay [2], affinity was put at a Ki of 1.2 nM and the “Ki(D2)*/Ki(D3)*” value came out at 60.
In the case of `CCCN1CC[C@@H](c2ccc(NS(=O)(=O)c3ccc(Br)cc3)cc2)C1.Cl` [Example 25, 4-Bromo-N-[4-((S)-1-propyl-pyrrolidin-3-yl)-phenyl]-benzenesulfonamide hydrochloride], the Ki worked out at 95 nM in assay [1] and 1.6 nM in assay [2]. Further, in assay [2], the “Ki(D2)*/Ki(D3)*” value was determined as 60.
As for `CCCN1CC[C@@H](c2ccc(NS(=O)(=O)c3ccc(C(C)=O)cc3)cc2)C1` [Example 26, 4-Acetyl-N-[4-((S)-1-propyl-pyrrolidin-3-yl)-phenyl]-benzenesulfonamide], the Ki in assay [1] stood at 1280 nM. Besides, in assay [2], the inhibition constant (Ki) is 28.1 nM and the “Ki(D2)*/Ki(D3)*” value came out at 46.
Take `CCCN1CC[C@@H](c2ccc(NS(=O)(=O)c3ccc(C4CC4)cc3)cc2)C1` [Example 27, 4-Cyclopropyl-N-[4-((S)-1-propyl-pyrrolidin-3-yl)-phenyl]-benzenesulfonamide]: the Ki was found to be 7.1 nM in assay [1] and 0.23 nM in assay [2]. Besides, the “Ki(D2)*/Ki(D3)*” value in assay [2] came to 30.
The like results for `CCCN1CC[C@@H](c2ccc(NS(=O)(=O)c3ccc(Br)s3)cc2)C1.Cl` [Example 28, 5-Bromo-thiophene-2-sulfonic acid [4-((S)-1-propyl-pyrrolidin-3-yl)-phenyl]-amide hydrochloride] were, in that order, 133 nM, 3.3 nM and 41.
For `C=C(C)c1ccc(S(=O)(=O)Nc2ccc([C@@H]3CCN(CCC)C3)cc2)s1` [Example 29, 5-Isopropenyl-thiophene-2-sulfonic acid [4-((S)-1-propyl-pyrrolidin-3-yl)-phenyl]-amide], the Ki in assay [1] turned out to be 27.3 nM. Also, in assay [2], the Ki stood at 0.67 nM and the “Ki(D2)*/Ki(D3)*” value is listed as 41.
The corresponding values for `CCCc1ccc(S(=O)(=O)Nc2ccc([C@@H]3CCN(CCC)C3)cc2)cc1.Cl` [Example 30, 4-Propyl-N-[4-((S)-1-propyl-pyrrolidin-3-yl)-phenyl]-benzenesulfonamide hydrochloride] are 11.7 nM, 0.28 nM and 42.
In the case of `CCCN1CCC(c2ccc(NS(=O)(=O)c3ccc(C(C)C)cc3)cn2)C1` (centres unmarked) [Example 31, N-[6-(1-propyl-pyrrolidin-3-yl)-pyridin-3-yl]-4-isopropyl-benzene-sulfonamide], the Ki in assay [1] came to 257 nM. Besides, in assay [2], the affinity corresponds to a Ki of 10.8 nM and the “Ki(D2)*/Ki(D3)*” value stood at 24.
In the case of `CCCN1CC[C@@H](c2ccc(NS(=O)(=O)c3ccc(C(C)CC)cc3)cc2)C1.Cl` (stereo partly drawn) [Example 33, 4-sec-Butyl-N-[4-((S)-1-propyl-pyrrolidin-3-yl)-phenyl]-benzenesulfonamide hydrochloride], the Ki in assay [1] stood at 5.47 nM. For the same compound, in assay [2], the Ki was determined as 0.17 nM and the “Ki(D2)*/Ki(D3)*” value worked out at 33.
In the case of `CCCN1CC[C@@H](c2ccc(NS(=O)(=O)c3cc(F)c(Br)cc3F)cc2)C1` [Example 34], the Ki in assay [1] was found to be 174 nM; in assay [2] it was 5.1 nM. Besides, the “Ki(D2)*/Ki(D3)*” value in assay [2] was 34.
The like results for `CCCN1CC[C@@H](c2ccc(NS(=O)(=O)c3ccc(CC(C)C)cc3)cc2)C1.Cl` [Example 35, 4-Isobutyl-N-[4-((S)-1-propyl-pyrrolidin-3-yl)-phenyl]-benzenesulfonamide hydrochloride] were, in that order, 7.4 nM, 0.3 nM and 24.
Regarding `CCCN1CC[C@@H](c2ccc(NS(=O)(=O)c3ccc(C4CCCC4)cc3)cc2)C1` [Example 37, 4-Cyclopentyl-N-[4-(S)-1-propyl-pyrrolidin-3-yl)-phenyl]-benzenesulfonamide hydrochloride], the Ki in assay [1] worked out at 3.25 nM; in assay [2], 0.15 nM. For the same compound, the “Ki(D2)*/Ki(D3)*” value in assay [2] came out at 22.
Regarding `CC(C)c1ccc(S(=O)(=O)Nc2ccc([C@@H]3CCN(CCCF)C3)cc2)cc1` [Example 38, 4-Isopropyl-N-[4-((S)-1-(3-fluoro-propyl)-pyrrolidin-3-yl)-phenyl]-benzenesulfonamide], the Ki in assay [1] stood at 6.3 nM; in assay [2] it was 0.29 nM. For the same compound, the “Ki(D2)*/Ki(D3)*” value in assay [2] stood at 21.
The like results for `CCCCOc1ccc(S(=O)(=O)Nc2ccc([C@@H]3CCN(CCC)C3)cc2)cc1` [Example 40, 4-Butyloxy-N-[4-((S)-1-propyl-pyrrolidin-3-yl)-phenyl]-benzenesulfonamide] were, in that order, 18.2 nM, 0.46 nM and 40.
Regarding `CCCN1CC[C@@H](c2ccc(NS(=O)(=O)c3ccc(C4CC4(F)F)cc3)cc2)C1` (stereo partly drawn) [Example 41, 4-(2,2-Difluorocyclopropyl)-N-[4-((S)-1-propyl-pyrrolidin-3-yl)-phenyl]-benzenesulfonamide], the Ki in assay [1] amounted to 13.5 nM. In addition, in assay [2], the Ki is 0.44 nM and the “Ki(D2)*/Ki(D3)*” value is 30.
Consider `CCCN1CC(c2ccc(NS(=O)(=O)c3ccc(C(C)C)cc3)cn2)C1` [Example 46, 4-Isopropyl-N-[6-(1-propyl-azetidin-3-yl)-pyridin-3-yl]-benzenesulfonamide], for which, in assay [1], the Ki amounted to 1830 nM. Further, in assay [2], the Ki worked out at 49 nM and the “Ki(D2)*/Ki(D3)*” value is given as 37.
The like results for `CCCN1CC(c2ccc(NS(=O)(=O)c3ccc(C(C)C)cc3)cc2)C1` [Example 48, 4-Isopropyl-N-[4-(1-propyl-azetidin-3-yl)-phenyl]-benzene sulfonamide] were, in that order, 137 nM, 2.1 nM and 65.
In the case of `CCCN1CC(c2ccc(NS(=O)(=O)c3ccc(OC(F)(F)F)cc3)cc2)C1` [Example 49, N-[4-(1-Propyl-azetidin-3-yl)-phenyl]-4-trifluoromethoxybenzene sulfonamide], in assay [1], the Ki came out at 1810 nM. In addition, in assay [2], the Ki is 46 nM and the “Ki(D2)*/Ki(D3)*” value turned out to be 39.
For the compound `CC(C)c1ccc(S(=O)(=O)Nc2ccc([C@@H]3CCN(CCCO)C3)cc2)cc1` [Example 53, N-{4-[(S)-1-(3-Hydroxy-propyl)-pyrrolidin-3-yl]-phenyl}-4-isopropyl-benzenesulfonamide], the Ki was 5.85 nM in assay [1] and 0.41 nM in assay [2]. Besides, in assay [2], the “Ki(D2)*/Ki(D3)*” value turned out to be 14.
For the compound `CCCN1CC[C@@H](c2ccc(NS(=O)(=O)c3ccc(C4CCC4)cc3)cc2)C1` [Example 54, 4-Cyclobutyl-N-[4-((S)-1-propyl-pyrrolidin-3-yl)-phenyl]-benzenesulfonamide], in assay [1], the Ki is 8.73 nM. Moreover, in assay [2], the affinity corresponds to a Ki of 0.32 nM and the “Ki(D2)*/Ki(D3)*” value is 27.
Consider `CCCN1CC(c2ccc(NS(=O)(=O)c3ccc(-c4cnco4)cc3)cc2)C1` [Example 55, 4-Oxazol-5-yl-N-[4-(1-propyl-azetidin-3-yl)-phenyl]-benzenesulfonamide], for which the Ki in assay [1] came out at 1170 nM. In addition, in assay [2], the affinity corresponds to a Ki of 7.11 nM and the “Ki(D2)*/Ki(D3)*” value is on record as 165.
In the case of `CCCN1CC(c2ccc(NS(=O)(=O)c3ccc(CCF)cc3)cc2)C1` [Example 56, 4-(2-Fluoro-ethyl)-N-[4-(1-propyl-azetidin-3-yl)-phenyl]-benzenesulfonamide], the Ki in assay [1] is 2660 nM. Further, in assay [2], affinity was put at a Ki of 24.4 nM and the “Ki(D2)*/Ki(D3)*” value turned out to be 109.
For `CCCN1CC(c2ccc(NS(=O)(=O)c3ccc(CCCF)cc3)cc2)C1` [Example 57, 4-(3-Fluoro-propyl)-N-[4-(1-propyl-azetidin-3-yl)-phenyl]-benzenesulfonamide], the inhibitory constant (Ki) in assay [1] was 880 nM. Also, in assay [2], the Ki was found to be 7.18 nM and the “Ki(D2)*/Ki(D3)*” value is reported as 123.
Take `CCCN1CC(c2ccc(NS(=O)(=O)c3ccc(Br)cc3)cc2)C1` [Example 58, 4-Bromo-N-[4-(1-propyl-azetidin-3-yl)-phenyl]-benzenesulfonamide]: the results for the Ki in assay [1] and in assay [2] were 2940 nM and 39.8 nM, respectively.
Regarding `CCCN1CC(c2ccc(NS(=O)(=O)c3ccc([C@@H](C)CF)cc3)cc2)C1` [Example 59, 4-((R)-2-Fluoro-1-methyl-ethyl)-N-[4-(1-propyl-azetidin-3-yl)-phenyl]-benzenesulfonamide], in assay [1], the Ki amounted to 1520 nM. Also, in assay [2], the Ki is 6.41 nM and the “Ki(D2)*/Ki(D3)*” value is 238.

By Ki is commonly meant the dissociation constant of the complex between target and ligand, obtained from inhibition or displacement.
